Non-standard residues stand in square brackets, D forms with d. Residues, ends and D or L forms follow the SMILES beside them. d(aIle) = CC[C@H](C)[C@@H](N)C(=O)O; NMeF = CN[C@@H](Cc1ccccc1)C(=O)O; dNMeF = CN[C@H](Cc1ccccc1)C(=O)O; NMeA = CN[C@@H](C)C(=O)O

Data set [1] deals with 3T3-L1. In words: Selectivity index, ratio of IC50 for mouse 3T3L1 cells to IC50 for fat-accumulation in mouse 3T3L1 cells. The data set is classed as functional.
The subject of data set [2] is 3T3-L1. The data set is described as follows: Inhibition of fat-accumulation in mouse 3T3L1 cells. It is filed as functional, cell-based.
The test system of data set [3] is 3T3-L1. The data set is described as follows: Cytotoxicity against mouse 3T3L1 cells. The data set is classed as cell-based.
For data set [4], the system named is 3T3-L1. In words: Cytotoxicity against mouse 3T3L1 cells at 62 uM. It is filed as cell-based. Conditions: 3t3-l1, 62 µM.

One may read the IC50 as the concentration that gives 50% inhibition. `CC[C@H](C)[C@H]1NC(=O)[C@@H](Cc2ccccc2)N(C)C(=O)[C@H](C)N(C)C(=O)[C@H](CC(C)C)NC(=O)[C@H](Cc2ccccc2)N(C)C(=O)[C@H](C(C)C)NC(=O)[C@@H](C(C)C)NC1=O` (cyclo(L[NMeA][dNMeF][d(aIle)][dV]V[NMeF])): the “Ratio IC50” value in data set [1] was greater than 12.3. Moreover, the results for the IC50 in data set [2] and in data set [3] were 42 µM and greater than 240 µM, respectively.
As to `CC[C@H](C)[C@H]1NC(=O)[C@@H](Cc2ccoc2)N(C)C(=O)[C@H](C)N(C)C(=O)[C@H](CC(C)C)NC(=O)[C@H](Cc2ccoc2)N(C)C(=O)[C@H](C(C)C)NC(=O)[C@@H](C(C)C)NC1=O` [RHIZONIN A], in data set [1], the “Ratio IC50” value turned out to be 1. In addition, the concentration for half-maximal inhibition (IC50) in data set [2] stood at 55 µM; in data set [3] it was 62 µM. The Activity in data set [4] is 70%.

The values above are taken from ChEMBL document CHEMBL1143273, “Structure-based hybridization of the bioactive natural products rhizonin A and ternatin leading to a selective fat-accumulation inhibitor against 3T3-L1 adipocytes” (Bioorg Med Chem Lett, 2009).
